In article PMC6007937, “A cell-based infection assay identifies efflux pump modulators that reduce bacterial intracellular load” (PLoS Pathogens, 2018):
Where two headings read alike, the source gives them in different places.

Molecular target: AcrB (Escherichia coli, UniProt P31224)
Assay: isothermal titration calorimetry (ITC)
Format: binding

Chain of AcrB (P31224 whole entry): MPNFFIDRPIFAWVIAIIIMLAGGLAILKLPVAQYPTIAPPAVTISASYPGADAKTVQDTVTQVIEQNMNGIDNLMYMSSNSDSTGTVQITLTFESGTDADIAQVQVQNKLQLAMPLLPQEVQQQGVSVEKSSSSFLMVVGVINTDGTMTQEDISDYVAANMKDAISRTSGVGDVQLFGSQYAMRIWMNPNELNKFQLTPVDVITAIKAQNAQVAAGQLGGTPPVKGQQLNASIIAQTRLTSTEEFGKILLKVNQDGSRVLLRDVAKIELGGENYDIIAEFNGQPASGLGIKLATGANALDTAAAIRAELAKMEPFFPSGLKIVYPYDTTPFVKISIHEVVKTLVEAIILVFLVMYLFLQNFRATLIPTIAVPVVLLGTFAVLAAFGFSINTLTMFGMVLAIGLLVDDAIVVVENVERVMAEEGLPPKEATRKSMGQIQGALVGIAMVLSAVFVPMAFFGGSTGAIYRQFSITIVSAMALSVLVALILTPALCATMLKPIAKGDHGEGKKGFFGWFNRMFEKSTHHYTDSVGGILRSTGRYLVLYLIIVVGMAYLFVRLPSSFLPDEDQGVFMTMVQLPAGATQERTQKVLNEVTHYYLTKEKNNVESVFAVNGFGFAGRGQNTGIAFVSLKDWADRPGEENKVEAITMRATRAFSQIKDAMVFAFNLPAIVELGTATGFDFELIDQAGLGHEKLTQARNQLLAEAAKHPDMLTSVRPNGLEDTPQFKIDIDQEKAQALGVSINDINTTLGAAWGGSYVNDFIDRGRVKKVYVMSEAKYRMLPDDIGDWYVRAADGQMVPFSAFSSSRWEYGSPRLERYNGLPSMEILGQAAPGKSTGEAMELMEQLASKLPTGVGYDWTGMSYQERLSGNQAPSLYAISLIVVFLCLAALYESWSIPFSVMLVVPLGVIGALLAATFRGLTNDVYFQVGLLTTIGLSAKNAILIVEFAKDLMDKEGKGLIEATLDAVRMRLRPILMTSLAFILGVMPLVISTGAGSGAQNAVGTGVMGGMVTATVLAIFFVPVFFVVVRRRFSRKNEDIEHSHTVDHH

SMILES | Kd (read-out: KD) [nM] | Kd [nM]
CC(C)(C)c1nc(NC(=N)N)sc1Br [EPM30] | 1790 ± 370 | 
OC(COc1ccc(Cl)c(Cl)c1)CN1CCC(Nc2nccc(C(F)(F)F)n2)CC1 (stereo not drawn) [EPM35] |  | 290 ± 30
Cc1ccc(Sc2cccc3nc(N)nc(N)c23)cc1 [EPM43] | 560 ± 60 | 
